Experimental data taken from patent publication US20260306641A1, “HELICASE DEGRADERS” (priority 2023, published 2026).

Tests used:
[1] = test system: HaCaT cells; experiment: DNA damage (gamma-H2AX) and apoptosis (cleaved Parp) immunoblot, HaCaT; format: cell-based, human; conditions: 15 μM, 48 hrs
Description: FIGS. 7A-7C depict that CMGi induce DNA damage and selectively reduce tumor cell viability. (FIG. 7A) Cell Titer Glo viability assays for CA1/CMGi sensitivity were performed on 143B (OS), Psn1 (PDAC), and H460 (NSCLC) tumor lines. Novobiocin was tested against 143B cells as a comparison. (FIG. 7B) Immunoblot of chromatin-bound proteins (as indicated) from asynchronous 143B OS cells treated with 10 μM novobiocin or increasing concentrations of CA1 for 24 hrs. (FIG. 7C) Immunoblot of total proteins from Psn1, H460, 143B, and HaCaT cells treated with 5 μM CA1/CMGi or DMSO/novobiocin controls, or HaCaT treated with 15 μM CA1/CMGi (right side). The Psn1 and H460 cells were treated for 24 hrs, and 143B and HaCaT cells were treated for 48 hrs. Probing of blots was done with anti-gamma-H2AX (DNA damage signal) or anti-cleaved-Parp (apoptotic indicator). Anti-GAPDH is a loading control.

[2] = target: HPV18-E1 helicase (human papillomavirus 18, UniProt P06789); experiment: HPV18-E1 helicase assay; format: biochemical, human papilloma virus 18; conditions: requires higher CA1 concentrations than CMG
Description: The HPV16 or HPV18 E1 helicase domain (16E1HD or 18E1HD) was expressed and purified from Sf9 cells by infecting the cells with 2Flag-GST-E1 baculovirus. The cleared cell lysates were prepared as for large T antigen and incubated with Glutathione beads at 4° C. overnight. The bound E1 proteins were eluted from beads with 20 mM reduced glutathione in Q buffer, applied to a Q Sepharose Fast Flow column, and eluted with 0.75 M potassium acetate in Q buffer. Purified E1 proteins were obtained by further incubation with Flag-M2 beads and elution with Flag peptides.
Helicase fork-unwinding assays were performed at 37° C. for 1 hr in 20 μL reaction volumes using 2-4 μl of hCMG (~15-30 fmol), in a buffer consisting of 25 mM Hepes-NaOH (pH 7.5), 5 mM NaCl, 0.5 mM ATP, 10 mM magnesium acetate, 1 mM DTT, 0.1 mg/ml bovine serum albumin (BSA), and ~10 fmol of radiolabeled DNA forks (20). Reactions were terminated with 4 μl of 6× stop solution [50 mM EDTA (pH 8.0), 40% (vol/vol) glycerol, 2% (wt/vol) SDS, and 0.3% bromophenol blue], loaded onto 10% (wt/vol) polyacrylamide gels, resolved at 150 volts in 1×-TBE buffer (89 mM Tris base, 89 mM boric acid, and 2 mM EDTA), dried on filter paper, and analyzed by autoradiography and quantified by PhosphorImager assessment. […]

[3] = test system: Flag-Mcm2 hCMG and replisome complexes from HEK-293T cells; experiment: Co-immunoprecipitation, HEK-293T cells expressing Flag-Mcm2; format: biochemical, human; conditions: 15 μM, 30 min; Flag IP
Description: Nuclear extracts were prepared from synchronized HaCaT cells after releasing into S-phase (at 20 hrs post release) or HEK-293T cells expressing stable Flag-Mcm2 protein (human). Cells from one 10 cm dish were resuspended in […] of Buffer A (10 mM Hepes-KOH pH 7.5, 10 mM KCl, 1.5 mM MgCl2, 0.34 M sucrose, 10% glycerol, protease inhibitors, and 0.1% Triton-X-100) and incubated on ice for 5 min. The nuclear pellet was obtained by centrifugation at 4,000 rpm at 4° C. for 5 min and washed with the Buffer A without Triton X-100. The nuclear extract was obtained by resuspending the nuclear pellet in […] of Buffer A containing 420 mM potassium acetate and 0.01% Triton X-100, and incubating at 4° C. for 1 hr. The final concentration of potassium acetate in nuclear extracts was adjusted to 200 mM for the co-immunoprecipitation assays. For the co-immunoprecipitation assays, […] of indicated antibody [anti-Mcm2, anti-Psf1, or rabbit IgG (Sigma)], or 30 mL of mouse IgG or anti-Flag agarose beads (Sigma), was incubated with […] of nuclear extract at 4° C. for 4 hrs. Protein A/G agarose beads (30 mL, Santa Cruz, sc-2003) were added and incubated for 1 hr with antibodies. […] Beads were washed in the same buffer and analyzed by immunoblotting with indicated antibodies.

[4] = test system: DNA Polymerase-theta; conditions: higher doses; cited from earlier work

HPV18-E1 helicase, sequence (P06789 305-657): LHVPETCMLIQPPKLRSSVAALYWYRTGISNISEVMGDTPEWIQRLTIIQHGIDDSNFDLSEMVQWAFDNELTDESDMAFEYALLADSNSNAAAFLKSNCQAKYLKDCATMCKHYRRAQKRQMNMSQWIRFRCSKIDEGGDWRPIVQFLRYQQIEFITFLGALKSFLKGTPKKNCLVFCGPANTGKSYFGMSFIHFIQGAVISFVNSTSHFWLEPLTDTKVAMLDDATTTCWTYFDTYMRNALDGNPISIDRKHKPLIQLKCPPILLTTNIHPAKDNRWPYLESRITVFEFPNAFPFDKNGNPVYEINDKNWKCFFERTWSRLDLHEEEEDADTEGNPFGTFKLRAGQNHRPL

CO[C@@H]1[C@@H](OC(=O)c2ccc(C)[nH]2)[C@@H](O)[C@H](Oc2ccc3c(O)c(NC(=O)c4c[nH]c(C(=O)Nc5c(O)c6ccc(O[C@@H]7OC(C)(C)[C@H](OC)[C@@H](OC(=O)c8ccc(C)[nH]8)[C@H]7O)c(C)c6oc5=O)c4C)c(=O)oc3c2C)OC1(C)C [CA1]
gamma-H2AX and Parp cleavage [1]: HaCaT cells will eventually incur DNA damage and Parp cleavage | HPV18-E1 helicase sensitivity [2]: sensitive to CA1, but require higher CA1 concentrations | MCM interactions [3]: does not disrupt MCM interactions | Psf1, Cdc45 and Ctf4 association with Flag-Mcm2 [3]: displaces Psf1, Cdc45, and Ctf4 from Flag-Mcm2

CO[C@@H]1[C@@H](OC(N)=O)[C@@H](O)[C@H](Oc2ccc3c(O)c(NC(=O)c4ccc(O)c(CC=C(C)C)c4)c(=O)oc3c2C)OC1(C)C [novobiocin]
DNA Polymerase-theta inhibition [4]: can inhibit a different anti-cancer target, DNA Polymerase-theta
